The structures appear in SMILES notation.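 Values below derive from 48-hour exposures of cells grown in 96-well plates, with endpoints linearly interpolated between the two concentrations bracketing the appropriate inhibition level. At the GI50, growth is halved. TGI: total growth inhibition.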

These results are taken from PubChem BioAssay (NCI).

Some test systems named below: A549 NSCLC; A498 renal; SK-MEL-28 melanoma; OVCAR-8 ovarian; EKVX NSCLC; RPMI-8226 leukemia; NCI-H460 lung; LOX IMVI melanoma; SF-295 CNS; 786-0 renal.
Experiment in all cases: NCI-60 cell line screen, 48 h

For the molecule `COc1cnc2c(c1)C(=O)c1c-2n(CCCN2CCN(C)CC2)c(=O)c2cc(Cl)ccc12`, the GI50 with A549 NSCLC is 4.17 µM; in the test on A498 renal it was 0.959 µM; in the test on SK-MEL-28 melanoma it was 2.3 µM; in the test with OVCAR-8 ovarian, 3.09 µM; in the test on EKVX NSCLC it was 7.73 µM; in the test on RPMI-8226 leukemia, 13.9 µM. The GI50 in the test with NCI-H460 lung was 0.377 µM; with LOX IMVI melanoma, 0.779 µM; in the test with SF-295 CNS, 0.674 µM; with 786-0 renal, 2.47 µM. Besides, the TGI was greater than 100 µM with A549 NSCLC; 9.61 µM with A498 renal; 5.04 µM with SK-MEL-28 melanoma; greater than 100 µM with OVCAR-8 ovarian; 31.9 µM with EKVX NSCLC; 45.1 µM in the test with RPMI-8226 leukemia. Further, the TGI with NCI-H460 lung was found to be 13.8 µM; in the test on LOX IMVI melanoma, 18.9 µM; in the test with SF-295 CNS it was 20.5 µM; in the test on 786-0 renal, 31.8 µM.

As for `CCCC(=O)NNc1[nH]c(-c2ccc(OC)cc2)cc1C(=O)OCC`, the GI50 in the test on A549 NSCLC was 21.5 µM; with A498 renal, 35.3 µM; in the test with SK-MEL-28 melanoma, 12.7 µM; with OVCAR-8 ovarian it was 17.8 µM; in the test on EKVX NSCLC, 16.9 µM; in the test on RPMI-8226 leukemia it was 16.8 µM. Further, the GI50 is 46.6 µM in the test on NCI-H460 lung, 16.8 µM in the test on LOX IMVI melanoma, 38 µM in the test on SF-295 CNS and 20.1 µM in the test with 786-0 renal. The TGI was 44.8 µM with A549 NSCLC; greater than 100 µM with A498 renal; 25.6 µM with SK-MEL-28 melanoma; 48.3 µM with OVCAR-8 ovarian; 32.7 µM in the test on EKVX NSCLC; 86.2 µM with RPMI-8226 leukemia. In addition, the TGI in the test on NCI-H460 lung was greater than 100 µM; with LOX IMVI melanoma it was 30.5 µM; with SF-295 CNS, greater than 100 µM; in the test on 786-0 renal it was 34.9 µM.

For `CCOC(=O)C1=C(C)N(NC(=O)c2ccccc2)C2(O)CCCC12C(=O)OCC` (centres undefined), the TGI in the test on A549 NSCLC, with A498 renal, in the test with SK-MEL-28 melanoma, in the test with OVCAR-8 ovarian, with EKVX NSCLC and in the test with RPMI-8226 leukemia was greater than 100 µM each time. Further, the TGI in the test on NCI-H460 lung, in the test with LOX IMVI melanoma, with SF-295 CNS and with 786-0 renal was greater than 100 µM in each case.

On to `Cc1ccc(S(=O)(=O)N/N=C(\C(=O)Nc2cccc([N+](=O)[O-])c2)c2nc3ccc([N+](=O)[O-])cc3[nH]c2=O)cc1`, for which the TGI in the test on A549 NSCLC, with A498 renal, in the test with SK-MEL-28 melanoma, in the test on OVCAR-8 ovarian, in the test on EKVX NSCLC and in the test on RPMI-8226 leukemia was greater than 100 µM each time. Further, the TGI with NCI-H460 lung, with LOX IMVI melanoma, in the test with SF-295 CNS and in the test with 786-0 renal was greater than 100 µM throughout.

With `COc1cccc2c1c1nc3cc(C)c(C)cc3nc1n2CCN(C)C`, the GI50 in the test on A549 NSCLC was 1.99 µM; in the test on A498 renal, 0.533 µM; in the test with SK-MEL-28 melanoma, 1.94 µM; with OVCAR-8 ovarian it was 0.798 µM; in the test with EKVX NSCLC, 2.29 µM; in the test on RPMI-8226 leukemia it was 1.16 µM. The GI50 was 1.09 µM in the test with NCI-H460 lung, 1.04 µM in the test with LOX IMVI melanoma, 2.17 µM in the test with SF-295 CNS and 1.35 µM with 786-0 renal. Also, the TGI is 12 µM with A549 NSCLC; 1.9 µM with A498 renal; 4.23 µM in the test on SK-MEL-28 melanoma; 13.3 µM with OVCAR-8 ovarian; 7.33 µM with EKVX NSCLC; 4.29 µM in the test with RPMI-8226 leukemia. For the same molecule, the TGI with NCI-H460 lung came out at 10.9 µM; with LOX IMVI melanoma, 8.7 µM; in the test on SF-295 CNS it was 7.62 µM; with 786-0 renal, 5.53 µM.

As to `COC(=O)C1C(=O)O[C@@H](c2ccc(OC)cc2OC)C1C(=O)OC` (some centres undefined), the TGI in the test on A549 NSCLC, with A498 renal, in the test on SK-MEL-28 melanoma, in the test with OVCAR-8 ovarian, in the test with EKVX NSCLC and in the test with RPMI-8226 leukemia was greater than 100 µM in each case. Further, the TGI in the test on NCI-H460 lung, in the test on LOX IMVI melanoma, in the test on SF-295 CNS and in the test on 786-0 renal was greater than 100 µM in each case.

Turning to `CO[C@H](C(=O)N[C@@H](CCCCNC(=O)OCc1ccccc1)C(=O)OC(C)(C)C)[C@@H]1Cc2cc3cc(OC4CC(OC5CC(O)C(O)C(C)O5)C(O)C(C)O4)c(C)c(O)c3c(O)c2C(=O)[C@H]1OC1CC(OC2CC(OC3CC(C)(O)C(O)C(C)O3)C(O)C(C)O2)C(O)C(C)O1` (some centres undefined), the GI50 with A549 NSCLC is 0.821 µM; with A498 renal it was 0.64 µM; in the test with SK-MEL-28 melanoma, 0.468 µM; with OVCAR-8 ovarian it was 0.697 µM; in the test on EKVX NSCLC, 1.17 µM; in the test on RPMI-8226 leukemia, 0.487 µM. For the same molecule, the GI50 is 0.364 µM with NCI-H460 lung, 0.434 µM with LOX IMVI melanoma, 0.468 µM in the test with SF-295 CNS and 0.563 µM in the test with 786-0 renal. Also, the TGI is 5.28 µM with A549 NSCLC; 2.03 µM in the test with A498 renal; 1.87 µM with SK-MEL-28 melanoma; greater than 10 µM with OVCAR-8 ovarian; 3.1 µM in the test on EKVX NSCLC; 3.65 µM with RPMI-8226 leukemia. For the same molecule, the TGI with NCI-H460 lung was 1.49 µM; with LOX IMVI melanoma, 2.4 µM; in the test with SF-295 CNS it was 1.72 µM; in the test with 786-0 renal, 1.88 µM.

As to `CO[C@H]1CC[C@@]2(C)C(=CC[C@H]3[C@@H]4C[C@H](O)C[C@@]4(C)CC[C@@H]32)C1`, the GI50 was 4.42 µM in the test with A549 NSCLC; 1.32 µM in the test on A498 renal; 8.55 µM with SK-MEL-28 melanoma; 5.14 µM in the test on OVCAR-8 ovarian; 6.85 µM in the test on EKVX NSCLC; 3.68 µM in the test with RPMI-8226 leukemia. Also, the GI50 was 3.56 µM in the test with NCI-H460 lung, 6.17 µM with LOX IMVI melanoma, 2.45 µM in the test on SF-295 CNS and 11.7 µM in the test with 786-0 renal. Further, the TGI in the test on A549 NSCLC came to 19.6 µM; with A498 renal it was 9.25 µM; in the test with SK-MEL-28 melanoma, 22.1 µM; in the test with OVCAR-8 ovarian, 19.2 µM; in the test on EKVX NSCLC it was 29 µM; with RPMI-8226 leukemia, 54.2 µM. Further, the TGI in the test with NCI-H460 lung was 13.9 µM; with LOX IMVI melanoma it was 24.5 µM; with SF-295 CNS, 8.02 µM; in the test on 786-0 renal, 37.7 µM.

Turning to `COC(=O)C#Cc1ccc([N+](=O)[O-])cc1`, the TGI in the test on A549 NSCLC was found to be 7.44 µM; in the test on A498 renal, 22.6 µM; with SK-MEL-28 melanoma it was 4.13 µM; with OVCAR-8 ovarian, 7.25 µM; in the test with EKVX NSCLC it was 3.48 µM; in the test on RPMI-8226 leukemia it was 1.48 µM. The TGI in the test with NCI-H460 lung amounted to 38.7 µM; in the test on LOX IMVI melanoma, 2.64 µM; in the test with SF-295 CNS, 10.9 µM; with 786-0 renal it was 7.04 µM.

As to `CC(=O)OCC1OC(S[As](C)C)C(OC(C)=O)C1OC(C)=O` (centres undefined), the GI50 with A549 NSCLC was 1.94 µM; with A498 renal it was 0.432 µM; in the test on SK-MEL-28 melanoma, 0.446 µM; in the test with OVCAR-8 ovarian it was 0.272 µM; in the test on EKVX NSCLC, 1.2 µM; in the test on NCI-H460 lung it was 2.36 µM. In addition, the GI50 in the test with LOX IMVI melanoma is 0.257 µM; with SF-295 CNS, 2.06 µM; in the test on 786-0 renal, 0.176 µM. Moreover, the TGI with A549 NSCLC worked out at 13.6 µM; with A498 renal, 3.06 µM; with SK-MEL-28 melanoma, 2.73 µM; with OVCAR-8 ovarian, 1.57 µM; with EKVX NSCLC it was 9.05 µM; in the test with RPMI-8226 leukemia, 0.126 µM. For the same molecule, the TGI in the test with NCI-H460 lung was found to be 14.4 µM; with LOX IMVI melanoma it was 0.991 µM; in the test with SF-295 CNS, 7.33 µM; in the test on 786-0 renal, 0.77 µM.

Turning to `CC/C(=C(\CC)c1ccc(OCCN(CC)CC)cc1)c1ccc(OCCN(CC)CC)cc1`, the GI50 was 3.81 µM in the test on A549 NSCLC; 0.76 µM in the test on A498 renal; 1.67 µM in the test on SK-MEL-28 melanoma; 5.85 µM in the test with OVCAR-8 ovarian; 4.02 µM in the test with EKVX NSCLC; 1.42 µM in the test on RPMI-8226 leukemia. For the same molecule, the GI50 with NCI-H460 lung was 3.86 µM; with LOX IMVI melanoma, 1.19 µM; in the test on SF-295 CNS it was 1.37 µM; in the test on 786-0 renal it was 1.6 µM. In addition, the TGI stood at 15.5 µM in the test with A549 NSCLC; 3.31 µM with A498 renal; 3.37 µM with SK-MEL-28 melanoma; 19.3 µM in the test on OVCAR-8 ovarian; 20.4 µM with EKVX NSCLC; 4.63 µM in the test on RPMI-8226 leukemia. In addition, the TGI came to 15.3 µM with NCI-H460 lung, 5.5 µM in the test on LOX IMVI melanoma, 3.91 µM in the test with SF-295 CNS and 3.66 µM in the test on 786-0 renal.

With `Cc1ccc(C(=O)NC2CCCCC2)cc1-c1ccc(C(=O)NCC2CC2)cc1`, the GI50 in the test on A549 NSCLC is 12.4 µM; with A498 renal, 8.51 µM; with SK-MEL-28 melanoma, greater than 25 µM; with OVCAR-8 ovarian, greater than 25 µM; with EKVX NSCLC, greater than 19.4 µM; in the test on RPMI-8226 leukemia, greater than 25 µM. Further, the GI50 in the test with NCI-H460 lung is 16.8 µM; with LOX IMVI melanoma it was greater than 25 µM; with SF-295 CNS, 10.8 µM; in the test on 786-0 renal it was greater than 25 µM. Moreover, the TGI in the test on A549 NSCLC, in the test with A498 renal, in the test with SK-MEL-28 melanoma, in the test with OVCAR-8 ovarian, with EKVX NSCLC and with RPMI-8226 leukemia was greater than 25 µM throughout. Moreover, the TGI in the test on NCI-H460 lung, in the test with LOX IMVI melanoma, in the test with SF-295 CNS and with 786-0 renal was greater than 25 µM in each case.

For `Cn1c2cccc3nnc4cccc(c4c32)n1C`, the TGI in the test on A549 NSCLC, in the test on A498 renal, with SK-MEL-28 melanoma, in the test on OVCAR-8 ovarian, with EKVX NSCLC and with RPMI-8226 leukemia was greater than 100 µM throughout. Further, the TGI with NCI-H460 lung, in the test on LOX IMVI melanoma, in the test with SF-295 CNS and in the test with 786-0 renal was greater than 100 µM in each case.
